Test results published in patent US9770445B2, “Sulfoximine substituted 5-fluoro-N-(pyridin-2-yl)pyridin-2-amine derivatives and their use as CDK9 kinase inhibitors” (BAYER PHARMA AKTIENGESELLSCHAFT, priority 2013, dated 2017).

Target: T1, CDK2/CycE (Homo sapiens, UniProt P24941)
T1 construct: GST; purchased ProQinase GmbH (Freiburg, Germany); host or cells: insect cells (Sf9)
Test: CDK2/CycE kinase assay (Method 2, TR-FRET)
Format: biochemical
Settings: Method 2, 10 μM ATP
Description: 2. CDK2/CycE Kinase Assay:
CDK2/CycE-inhibitory activity of compounds of the present invention was quantified employing the CDK2/CycE TR-FRET assay as described in the following paragraphs:
Recombinant fusion proteins of GST and human CDK2 and of GST and human CycE, expressed in insect cells (Sf9) and purified by Glutathion-Sepharose affinity chromatography, were purchased from ProQinase GmbH (Freiburg, Germany). As substrate for the kinase reaction biotinylated peptide biotin-Ttds-YISPLKSPYKISEG (C-terminus in amid form) was used which can be purchased e.g. form the company JERINI Peptide Technologies (Berlin, Germany).
For the assay 50 nl of a 100 fold concentrated solution of the test compound in DMSO was pipetted into a black low volume 384 well microtiter plate (Greiner Bio-One, Frickenhausen, Germany), 2 μl of a solution of CDK2/CycE in aqueous assay buffer [50 mM Tris/HCl pH 8.0, 10 mM MgCl2, 1.0 mM dithiothreitol, 0.1 mM sodium ortho-vanadate, 0.01% (v/v) Nonidet-P40 (Sigma)] were added and the mixture was incubated for 15 min at 22° C. to allow pre-binding of the test compounds to the enzyme before the start of the kinase reaction. Then the kinase reaction was started by the addition of 3 μl of a solution of adenosine-tri-phosphate (ATP, 16.7 μM=>final conc. in the 5 μl assay volume is 10 μM) and substrate (1.25 μM=>final conc. in the 5 μl assay volume is 0.75 μM) in assay buffer and the resulting mixture was incubated for a reaction time of 25 min at 22° C. The concentration of CDK2/CycE was adjusted depending of the activity of the enzyme lot and was chosen appropriate to have the assay in the linear range, typical concentrations were in the range of 130 ng/mL. The reaction was stopped by the addition of 5 μl of a solution of TR-FRET detection reagents (0.2 μM streptavidine-XL665 [Cisbio Bioassays, Codolet, France] and 1 nM anti-RB(pSer807/pSer811)-antibody from BD Pharmingen [#558389] and 1.2 nM LANCE EU-W1024 labeled anti-mouse IgG antibody [Perkin-Elmer, product no. AD0077]) in an aqueous EDTA-solution (100 mM EDTA, 0.2% (w/v) bovine serum albumin in 100 mM HEPES/NaOH pH 7.0).
The resulting mixture was incubated 1 h at 22° C. to allow the formation of complex between the phosphorylated biotinylated peptide and the detection reagents. Subsequently the amount of phosphorylated substrate was evaluated by measurement of the resonance energy transfer from the Eu-chelate to the streptavidine-XL. Therefore, the fluorescence emissions at 620 nm and 665 nm after excitation at 350 nm was measured in a TR-FRET reader, e.g. a Rubystar (BMG Labtechnologies, Offenburg, Germany) or a Viewlux (Perkin-Elmer). The ratio of the emissions at 665 nm and at […] was taken as the measure for the amount of phosphorylated substrate. The data were normalised (enzyme reaction without inhibitor=0% inhibition, all other assay components but no enzyme=100% inhibition).

IC50 [nM] | SMILES
142 | CS(=N)(=O)Cc1ccnc(Nc2cc(-c3ccc(F)c4ccoc34)c(F)cn2)c1 (single isomer, unassigned; (+)) [Example 14, (+)-5-Fluoro-4-(4-fluoro-1-benzofuran-7-yl)-N-{4-[(S-methylsulfonimidoyl)methyl]pyridin-2-yl}pyridin-2-amine]
121 | CS(=N)(=O)Cc1ccnc(Nc2cc(-c3ccc(F)c4ccoc34)c(F)cn2)c1 (single isomer, unassigned; (-)) [Example 15, (−)-5-Fluoro-4-(4-fluoro-1-benzofuran-7-yl)-N-{4-[(S-methylsulfonimidoyl)methyl]pyridin-2-yl}pyridin-2-amine]
